{"source": "paper PMC3544362", "about": "(Journal of medicinal chemistry, 2012)", "origin": "cited, not measured here", "key": {"[1]": {"conditions": "rat, 60 min p.i., ref [32]"}, "[2]": {"conditions": "presumably rapid in vivo hydrolysis, ref [31]–[32]"}, "[3]": {"conditions": "Sprague-Dawley rats, 5 min p.i.; ref [12]"}, "[4]": {"conditions": "Wistar rats, 60 min p.i., ref [16]"}}, "note": "Where two headings read alike, the source gives them in different places.", "data": [{"molecule": "CC(C)(C)n1ncc(OCc2ccc(COCC[18F])cc2)c(Cl)c1=O", "note": "[Flurpiridaz F 18]", "values": [{"measurement": "heart uptake", "setting": "Sprague-Dawley rats, 60 min p.i., ref [17], [46]", "value": 3.3, "unit": "%ID/g"}, {"measurement": "liver concentration", "setting": "Wistar rats, 10 min p.i., ref [16]", "value": 0.99, "unit": "%ID/g"}, {"measurement": "heart uptake", "setting": "[4]", "value": 2.06, "unit": "%ID/g"}, {"measurement": "liver concentration", "setting": "[4]", "value": 0.38, "unit": "%ID/g"}]}, {"molecule": "CCN(CC)c1ccc2c(-c3ccccc3C(=O)OCC[18F])c3ccc(=[N+](CC)CC)cc-3oc2c1", "note": "[[^18F]3, 2-[^18F]fluoroethyl rhodamine B]", "values": [{"measurement": "Heart/blood", "setting": "[1]; tissue ratio", "value": 25.8}, {"measurement": "Blood", "setting": "[1]", "value": "0.08 ± 0.03", "unit": "%ID/g"}, {"measurement": "Bone", "setting": "[1]", "value": "0.45 ± 0.08", "unit": "%ID/g"}, {"measurement": "Gut", "setting": "[1]", "value": "2.40 ± 0.53", "unit": "%ID/g"}, {"measurement": "Heart", "setting": "[1]", "value": "2.06 ± 0.61", "unit": "%ID/g"}, {"measurement": "Kidney", "setting": "[1]", "value": "8.31 ± 0.81", "unit": "%ID/g"}, {"measurement": "Liver", "setting": "[1]", "value": "0.89 ± 0.07", "unit": "%ID/g"}, {"measurement": "Lung", "setting": "[1]", "value": "1.78 ± 0.65", "unit": "%ID/g"}, {"measurement": "Muscle", "setting": "[1]", "value": "0.16 ± 0.04", "unit": "%ID/g"}, {"measurement": "Skin", "setting": "[1]", "value": "0.20 ± 0.02", "unit": "%ID/g"}, {"measurement": "Spleen", "setting": "[1]", "value": "5.63 ± 0.78", "unit": "%ID/g"}, {"measurement": "accumulation in mouse myocardium", "setting": "[2]", "value": "did not accumulate in mouse myocardium"}]}, {"molecule": "Fc1ccc([P+](c2ccccc2)(c2ccccc2)c2ccccc2)cc1", "note": "[^18F-FTPP]", "values": [{"measurement": "heart uptake", "setting": "[3]", "value": 1.64, "unit": "%ID/g"}, {"measurement": "heart-to-blood ratio", "setting": "[3]", "value": 11}]}]}
